Values after ≈ are worked out from the molar mass of the structure shown.
Key:
[1] = oral administration in mice, in words; for Parameters such as Tmax, Cmax, MRT, AUC and relative bioavailability compared with nitazoxanide: calculated as tizoxanide
Helicobacter pylori = settings: 103 strains of Helicobacter pylori; cited from earlier work
[2] = tested on: Mycobacterium tuberculosis; settings: cited from earlier work
[3] = rat, in vivo, po
PR8 influenza virus = PR8 influenza virus in MDCK cells; cited from earlier work
[4] = in vivo, cited from earlier work

Row | SMILES | Parameters such as Tmax, Cmax, MRT, AUC and relative bioavailability compared with nitazoxanide [1] | Oral absorption compared with the control agent nitazoxanide (NTZ) [1] | other results
1 | O=C(Nc1ncc([N+](=O)[O-])s1)c1ccccc1OC(=O)N1CCOCC1 [Compound 1, 2-(5-nitrothiazol-2-yl-carbamoyl)phenylmorpholine-4-carboxylate] | significantly superior | much better | –
2 | CCOC(=O)C1CCN(C(=O)Oc2ccccc2C(=O)Nc2ncc([N+](=O)[O-])s2)CC1 [Compound 5] | comparable | faster | –
3 | O=C(Nc1ncc([N+](=O)[O-])s1)c1ccccc1OC(=O)N1CCCCC1 [Compound 3] | significantly superior | much better | –
4 | O=C(Nc1ncc([N+](=O)[O-])s1)c1ccccc1O [tizoxanide] | – | – | 50% minimal inhibitory concentration (MIC50) (Helicobacter pylori): 1 µg/mL; 90% minimal inhibitory concentration (MIC90) (Helicobacter pylori): 4 µg/mL
5 | O=C(Nc1ncc([N+](=O)[O-])s1)c1ccccc1OC(=O)N1CCCC1 [Compound 4, 2-((5-nitrothiazol-2-yl)carbamoyl)phenyl-pyrrolidine-1-carboxylate] | significantly superior | much better | –
6 | CN(C)C(=O)Oc1ccccc1C(=O)Nc1ncc([N+](=O)[O-])s1 [Compound 6] | significantly superior | much better | –
7 | CC(=O)Oc1ccccc1C(=O)Nc1ncc([N+](=O)[O-])s1 [NTZ, 2-acetoxy-N-(5-nitro-2-thiazolyl)benzamide] | – | – | 50% minimal inhibitory concentration (MIC50) (Helicobacter pylori): 1 µg/mL; 90% minimal inhibitory concentration (MIC90) (Helicobacter pylori): 4 µg/mL; Minimal inhibitory concentration (MIC), median value [2]: 16 µg/mL (≈ 52.1 µM); Absolute bioavailability [3]: 7.2%; EC50 (PR8 influenza virus): 1 µg/mL (≈ 3.25 µM); EC90 (PR8 influenza virus): 7 µg/mL (≈ 22.8 µM); Detection of the parent drug in plasma, urine, bile and feces ([4]; po): not detectable; Part of the oral dose excreted by feces [4]: about ⅔; Part of the oral dose excreted by urine [4]: about ⅓
8 | CN1CCN(C(=O)Oc2ccccc2C(=O)Nc2ncc([N+](=O)[O-])s2)CC1 [Compound 2, 2-(5-nitrothiazol-2-yl-carbamoyl)phenyl-4-methylpiperazine-1-carboxylate] | significantly superior | faster | –
